# Laboratory results published in ChEMBL document CHEMBL1148094, “Graminone B, a novel lignan with vasodilative activity from Imperata cylindrica” (1994).
# The source made the active and inactive calls. The calls are words filed in the database; no cut-off is given here.
# How the values were obtained:
# [1] = Vasorelaxant activity in rabbit aorta assessed as inhibition of KCl-induced contractile response at 100 uM; format: functional; conditions: Oryctolagus cuniculus
# Oryctolagus cuniculus = species: Oryctolagus cuniculus; assay: Vasorelaxant activity in rabbit aorta assessed as inhibition of norepinephrine-induced contractile response at 100 uM; format: functional, tissue-based
compound,measurement,setting,value
COc1cc(O)cc([C@@H]2OC[C@@H]3[C@H]2C(=O)O[C@H]3c2cc(O)c(OC)c(OC)c2)c1 [GRAMINONE B],inhibition at 100 µM,[1],50%
same,Activity,Oryctolagus cuniculus,inactive
